This note sets out measurements from patent US12544375B2, “Small molecule therapeutic for parkinson's disease paired with a biomarker of therapeutic activity” (The Board of Trustees of the Leland Stanford Junior …, priority 2019, dated 2026).

One assay relates to Miro1 mRNA. Kind of assay: Miro1 mRNA expression by qPCR in fibroblasts. In kind it is cell-based, human. As for the experimental part:
FIG. 8. Related to FIG. 2-4. Miro1 Reducer in Human Cell and Fly Models. (A) Fibroblasts from Healthy-1 and PD-2 were treated, lysed, and blotted as indicated. Band intensities are normalized to those of GAPDH from the same blots and compared to “Healthy-1, no treatment”. n=4 independent experiments. (B) Fibroblasts from PD-2 were treated and immunostained as indicated. The intensity was quantified for each cell across 264-320 cells from 3 independent experiments, compared to “no treatment”. (C) Fibroblasts were treated, immunoprecipitated (IPed) with anti-Miro1, and blotted as indicated. Similar results were observed twice. […] The GTPase activity of the IPed Miro1 protein was measured as described in Method. […] The MitoSox intensity was quantified for each cell across 106-161 cells from 3 coverslips. […] The TMRM intensity was measured for each cell across 48-60 cells from 3 independent experiments, and expressed as a fraction of the mean of “Healthy-1, no treatment”. […] The movement (the intensity of non-yellow) was quantified for each cell as described in (Tsai et al., 2014) across 22-31 cells from 3 transfections. […] (1) Left: The percentage of TH-positive iPSC-derived neurons out of total cells (Dapi-positive) is calculated after immunocytochemistry under 20× as described in FIG. 3. […]
PCR. […] Concentrations of total RNA were measured using a Nano Drop. […]

A further assay has as its system PINK1 null flies. As to the kind of experiment: Non-progressive phenotypes of PINK1 null flies (ATP levels, thoracic indentation, wing posture, flying ability). In kind it is in vivo, fly. Conditions: PINK1 null flies fed from adult onset with 2.5 μM. As for the experimental part:
FIG. 8. Related to FIG. 2-4. Miro1 Reducer in Human Cell and Fly Models. (A) Fibroblasts from Healthy-1 and PD-2 were treated, lysed, and blotted as indicated. Band intensities are normalized to those of GAPDH from the same blots and compared to “Healthy-1, no treatment”. n=4 independent experiments. (B) Fibroblasts from PD-2 were treated and immunostained as indicated. The intensity was quantified for each cell across 264-320 cells from 3 independent experiments, compared to “no treatment”. (C) Fibroblasts were treated, immunoprecipitated (IPed) with anti-Miro1, and blotted as indicated. Similar results were observed twice. (D) Similar as in (C), fibroblasts were treated as indicated, and IPed with anti-Miro1. The GTPase activity of the IPed Miro1 protein was measured as described in Method. […] The MitoSox intensity was quantified for each cell across 106-161 cells from 3 coverslips. […] The TMRM intensity was measured for each cell across 48-60 cells from 3 independent experiments, and expressed as a fraction of the mean of “Healthy-1, no treatment”. […] The movement (the intensity of non-yellow) was quantified for each cell as described in (Tsai et al., 2014) across 22-31 cells from 3 transfections. […] (1) Left: The percentage of TH-positive iPSC-derived neurons out of total cells (Dapi-positive) is calculated after immunocytochemistry under 20× as described in FIG. 3. […]

In the case of `O=C(Nc1ccc(Nc2cc(-n3ccnc3)ncn2)cc1)Nc1cccc(F)c1` [Miro1 Reducer], the “Miro1 mRNA expression (qPCR)” value in the assay with Miro1 mRNA is recorded as “nor did it change Miro1 mRNA expression”. Moreover, the “non-progressive phenotypes (lowered ATP levels, thoracic indentation, abnormal wing posture, defective flying ability)” value in the assay with PINK1 null flies is given as “did not improve”.
